Experimental data reported in US8952024B2, “Herbicidal pyrimidone derivatives” (E I du Pont de Nemours and Company, priority 2009, dated 2015).

Key:
Assay type in all cases: in vivo
[1] = tested on: windgrass (Apera spica-venti); experiment: Test B postemergence plant response
Summary of the method: (§1)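 Visual ratings from 0 (no effect) to 100 (complete control), made against controls 13–15 days after treatment, kept in a greenhouse. Compounds were applied postemergence to potted plants at the 1- to 4-leaf stage (2–18 cm).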

[2] = tested on: chickweed (Stellaria media); experiment: Test B postemergence plant response
Summary of the method: as §1

[3] = tested on: canarygrass (Phalaris minor); experiment: Test B postemergence plant response
Summary of the method: as §1

[4] = tested on: wheat (Triticum aestivum); experiment: Test B pre-/postemergence plant response
Description: (§2) Seeds of plant species selected from blackgrass (Alopecurus myosuroides), downy bromegrass (Bromus tectorum), green foxtail (Setaria viridis), Italian ryegrass (Lolium multiflorum), wheat (Triticum aestivum), wild oat (Avena fatua), deadnettle (henbit deadnettle, Lamium amplexicaule), galium (catchweed bedstraw, Galium aparine), bermudagrass (Cynodon dactylon), Surinam grass (Brachiaria decumbens), cocklebur (Xanthium strumarium), corn (Zea mays), large crabgrass (Digitaria sanguinalis), woolly cupgrass (Eriochloa villosa), giant foxtail (Setaria faberii), goosegrass (Eleusine indica), johnsongrass (Sorghum halepense), kochia (Kochia scoparia), lambsquarters (Chenopodium album), morningglory (Ipomoea coccinea), nightshade (eastern black nightshade, Solanum ptycanthum), yellow nutsedge (Cyperus esculentus), pigweed (Amaranthus retroflexus), ragweed (common ragweed, Ambrosia elatior), Russian thistle (Salsola kali), soybean (Glycine max), sunflower (common oilseed sunflower, Helianthus annuus) and velvetleaf (Abutilon theophrasti) were planted into a blend of loam soil and sand and treated preemergence with test compounds formulated in a non-phytotoxic solvent mixture which included a surfactant.
(§3) At the same time, plants selected from these crop and weed species and also winter barley (Hordeum vulgare), canarygrass (Phalaris minor), chickweed (Stellaria media) and windgrass (Apera spica-venti) were planted in pots containing Redi-Earth® planting medium (Scotts Company, 14111 Scottslawn Road, Marysville, Ohio 43041) comprising spaghnum peat moss, vermiculite, wetting agent and starter nutrients and treated with postemergence applications of some of the test chemicals formulated in the same manner. Plants ranged in height from 2 to 18 cm (1- to 4-leaf stage) for postemergence treatments.
(§4) Treated plants and controls were maintained in a greenhouse for 13 to 15 days, after which time all treated plants were visually evaluated and compared to controls. Plant response ratings, summarized in Table B, are based on a scale of 0 to 100 where 0 is no effect and 100 is complete control. A dash (-) response means no test result.

wild oat (Avena fatua) = experiment: Test B pre-/postemergence plant response
Description: as §2, §3, §4

[5] = tested on: velvetleaf (Abutilon theophrasti); experiment: Test B pre-/postemergence plant response
Description: as §2, §3, §4

[6] = tested on: Surinam grass (Brachiaria decumbens); experiment: Test B pre-/postemergence plant response
Description: as §2, §3, §4

soybean (Glycine max) = experiment: Test B pre-/postemergence plant response
Description: as §2, §3, §4

[7] = tested on: blackgrass (Alopecurus myosuroides); experiment: Test B pre-/postemergence plant response
Description: as §2, §3, §4

kochia (Kochia scoparia) = experiment: Test B pre-/postemergence plant response
Description: as §2, §3, §4

[8] = tested on: pigweed (Amaranthus retroflexus); experiment: Test B pre-/postemergence plant response
Description: as §2, §3, §4

[9] = tested on: cocklebur (Xanthium strumarium); experiment: Test B pre-/postemergence plant response
Description: as §2, §3, §4

[10] = tested on: lambsquarters (Chenopodium album); experiment: Test B pre-/postemergence plant response
Description: as §2, §3, §4

[11] = 31 g ai/ha, postemergence, scale 0 to 100, 0 is no effect, 100 is complete control
[12] = 62 g ai/ha, postemergence, 0 is no effect, 100 is complete control, 13 to 15 days
[13] = Postemergence, 125 g ai/ha, visual rating after 13 to 15 days, scale 0 (no effect) to 100 (complete control)
[14] = Postemergence, 250 g ai/ha, scale 0 to 100 (0 no effect, 100 complete control)
[15] = Preemergence, 31 g ai/ha, scale 0 to 100 (0 no effect, 100 complete control)
[16] = Preemergence, 62 g ai/ha, scale 0 to 100 (0 no effect, 100 complete control)
[17] = Preemergence, 125 g ai/ha, scale 0 to 100, 0 no effect, 100 complete control
[18] = 250 g ai/ha, Preemergence, 0 to 100 scale

**Q.** Which results are given for CCCCc1ncc(C(=O)C2=C(O)CCCC2=O)c(=O)n1-c1ccc(C)cc1 [Compound 67]?
**A.** Plant response rating, Windgrass [1, 11]: 0; Windgrass plant response rating (0 to 100 scale) [1, 12]: 0; Plant response rating, Windgrass [1, 13]: 5; Plant response rating, Windgrass [1, 14]: 5; Plant response rating, Chickweed [2, 11]: 90; Chickweed plant response rating (0 to 100 scale) [2, 12]: 95; Plant response rating, Chickweed [2, 13]: 95; Plant response rating, Chickweed [2, 14]: 100; Plant response rating, Canarygrass [3, 11]: 0; Canarygrass plant response rating (0 to 100 scale) [3, 12]: 0; Plant response rating, Canarygrass [3, 13]: 0; Plant response rating, Canarygrass [3, 14]: 5; Plant response rating, Wheat [4, 11]: 5; Wheat plant response rating (0 to 100 scale) [4, 12]: 5; Plant response rating, Wheat [4, 13]: 25; Plant response rating, Wheat [4, 14]: 25; Plant response rating, Wheat [4, 15]: 0; Plant response rating, Wheat [4, 16]: 0; Plant response rating, Wheat [4, 17]: 0; Plant response rating, Oat, Wild (wild oat (Avena fatua); [11]): 0; Oat, Wild plant response rating (0 to 100 scale) (wild oat (Avena fatua); [12]): 5; Plant response rating, Oat, Wild (wild oat (Avena fatua); [13]): 10; Plant response rating, Oat, Wild (wild oat (Avena fatua); [14]): 10; Plant response rating, Oat, Wild (wild oat (Avena fatua); [15]): 0; Plant response rating, Oat, Wild (wild oat (Avena fatua); [16]): 0; Plant response rating, Oat, Wild (wild oat (Avena fatua); [17]): 0; Plant response rating, Velvetleaf [5, 11]: 90; Velvetleaf plant response rating (0 to 100 scale) [5, 12]: 95; Plant response rating, Velvetleaf [5, 13]: 98; Plant response rating, Velvetleaf [5, 14]: 100; Plant response rating, Velvetleaf [5, 15]: 75; Plant response rating, Velvetleaf [5, 16]: 85; Plant response rating, Velvetleaf [5, 17]: 90; Plant response rating, Surinam Grass [6, 11]: 10; Surinam Grass plant response rating (0 to 100 scale) [6, 12]: 20; Plant response rating, Surinam Grass [6, 13]: 20; Plant response rating, Surinam Grass [6, 14]: 25; Plant response rating, Surinam Grass [6, 15]: 0; Plant response rating, Surinam Grass [6, 16]: 10; Plant response rating, Surinam Grass [6, 17]: 15; Plant response rating, Soybean (soybean (Glycine max); [11]): 80; Soybean plant response rating (0 to 100 scale) (soybean (Glycine max); [12]): 90; Plant response rating, Soybean (soybean (Glycine max); [13]): 98; Plant response rating, Soybean (soybean (Glycine max); [14]): 98; Plant response rating, Blackgrass [7, 11]: 0; Blackgrass plant response rating (0 to 100 scale) [7, 12]: 0; Plant response rating, Blackgrass [7, 18]: 5; Plant response rating, Blackgrass [7, 13]: 5; Plant response rating, Blackgrass [7, 14]: 10; Plant response rating, Blackgrass [7, 15]: 0; Plant response rating, Blackgrass [7, 16]: 0; Plant response rating, Blackgrass [7, 17]: 0; Plant response rating, Kochia (kochia (Kochia scoparia); [11]): 75; Kochia plant response rating (0 to 100 scale) (kochia (Kochia scoparia); [12]): 80; Plant response rating, Kochia (kochia (Kochia scoparia); [18]): 85; Plant response rating, Kochia (kochia (Kochia scoparia); [13]): 85; Plant response rating, Kochia (kochia (Kochia scoparia); [14]): 85; Plant response rating, Kochia (kochia (Kochia scoparia); [15]): 70; Plant response rating, Kochia (kochia (Kochia scoparia); [16]): 70; Plant response rating, Kochia (kochia (Kochia scoparia); [17]): 80; Plant response rating, Pigweed [8, 11]: 98; Pigweed plant response rating (0 to 100 scale) [8, 12]: 98; Plant response rating, Pigweed [8, 13]: 98; Plant response rating, Pigweed [8, 14]: 100; Plant response rating, Pigweed [8, 15]: 98; Plant response rating, Pigweed [8, 16]: 98; Plant response rating, Pigweed [8, 17]: 98; Plant response rating, Cocklebur [9, 11]: 75; Cocklebur plant response rating (0 to 100 scale) [9, 12]: 75; Plant response rating, Cocklebur [9, 18]: 20; Plant response rating, Cocklebur [9, 13]: 90; Plant response rating, Cocklebur [9, 14]: 90; Plant response rating, Cocklebur [9, 15]: 0; Plant response rating, Cocklebur [9, 16]: 0; Plant response rating, Cocklebur [9, 17]: 15; Plant response rating, Lambsquarters [10, 11]: 80; Lambsquarters plant response rating (0 to 100 scale) [10, 12]: 95; Plant response rating, Lambsquarters [10, 18]: 98; Plant response rating, Lambsquarters [10, 13]: 98; Plant response rating, Lambsquarters [10, 14]: 100; Plant response rating, Lambsquarters [10, 15]: 98; Plant response rating, Lambsquarters [10, 16]: 98; Plant response rating, Lambsquarters [10, 17]: 98
